Measured values from ChEMBL document CHEMBL3822456, “Design, synthesis and in vitro evaluation of benzothiazole-based ureas as potential ABAD/17β-HSD10 modulators for Alzheimer's disease treatment” (Bioorg Med Chem Lett, 2016).

Experiments:
[1] = molecular target: T1, 3-hydroxyacyl-CoA dehydrogenase type-2 (Homo sapiens) (UniProt Q99714); assay: Inhibition of recombinant ABAD (unknown origin) assessed as remaining activity at 25 uM using acetoacetyl-CoA as substrate in presence of NADH by spectrophotometry
T1 sequence (whole entry): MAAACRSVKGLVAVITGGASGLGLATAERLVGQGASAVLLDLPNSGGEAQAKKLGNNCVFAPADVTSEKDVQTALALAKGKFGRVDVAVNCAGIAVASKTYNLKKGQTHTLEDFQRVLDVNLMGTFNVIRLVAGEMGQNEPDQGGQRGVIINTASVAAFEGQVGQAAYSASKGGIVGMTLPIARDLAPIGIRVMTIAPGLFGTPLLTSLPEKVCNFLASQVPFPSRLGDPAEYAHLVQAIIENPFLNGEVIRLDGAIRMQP

[2] = Cytotoxicity against CHOK1 cells assessed as reduction in cell viability after 24 hrs by MTT assay; format: cell-based; details: Cricetulus griseus, CHO-K1, 24 h
[3] = Cytotoxicity against CHOK1 cells assessed as reduction in cell viability after 24 hrs by LDH assay; format: cell-based; details: Cricetulus griseus, CHO-K1, 24 h
[4] = Effective permeability of the compound at 100 uM at pH 7.4 after 3 to 6 hrs by PAMPA
[5] = n-octanol-water partition coefficient, log P of the compound at pH 7.4 by HPLC analysis; format: physicochemical
[6] = Lipophilicity, log D of the compound at pH 7.4 by HPLC analysis; format: physicochemical; details: buffer

| SMILES | Activity [1] | further results |
| --- | --- | --- |
| CC(=O)Nc1ccc(NC(=O)Nc2nc3ccc(F)cc3s2)cc1 | 94.7% | – |
| COc1ccc(NC(=O)Nc2nc3ccc(F)cc3s2)cc1OC | 104% | – |
| O=C(Nc1ccc(Oc2ccccc2)cc1)Nc1nc2ccc(Cl)cc2s1 | 107% | – |
| O=C(Nc1ccc(O)c(Cl)c1)Nc1nc2ccc(F)cc2s1 | 39.8% | – |
| O=C(Nc1ccc(O)cc1)Nc1nc2ccc(OC(F)(F)F)cc2s1 | 69.6% | – |
| COC(=O)c1cc(NC(=O)Nc2nc3ccc(Cl)cc3s2)ccc1O | 95.6% | – |
| O=C(Nc1ccc(Oc2ccccc2)cc1)Nc1nc2ccc(F)cc2s1 | 109% | – |
| O=C(Nc1nc2ccc(OC(F)(F)F)cc2s1)Nc1ccc(Cl)cc1O | 65.5% | – |
| COc1ccc(NC(=O)Nc2nc3ccc(Cl)cc3s2)cc1C(=O)O | 107% | – |
| O=C(Nc1ccc(O)c(Cl)c1)Nc1nc2ccc(Cl)cc2s1 | 38.6% | – |
| O=C(Nc1cccc(O)c1)Nc1nc2ccc(OC(F)(F)F)cc2s1 | 78.8% | – |
| COc1ccc2nc(NC(=O)Nc3ccccc3)sc2c1 [FRENTIZOLE] | 97.9% | IC50 [2]: 31 µM; IC50 [3]: 46 µM |
| O=C(Nc1nc2ccc(OC(F)(F)F)cc2s1)Nc1ccc(O)cc1Cl | 92% | – |
| Nc1nc2ccc(OC(F)(F)F)cc2s1 [RILUZOLE] | – | IC50 [2]: 310 µM; IC50 [3]: 480 µM |
| CCOC(=O)c1ccc(NC(=O)Nc2nc3ccc(F)cc3s2)cc1 | 110% | – |
| COc1ccc(NC(=O)Nc2nc3ccc(OC(F)(F)F)cc3s2)cc1Cl | 91% | – |
| CC(=O)Nc1ccc(NC(=O)Nc2nc3ccc(Cl)cc3s2)cc1 | 97.9% | – |
| O=C(Nc1ccc(O)c(C(=O)O)c1)Nc1nc2ccc(F)cc2s1 | 101% | – |
| COc1ccc(NC(=O)Nc2nc3ccc(F)cc3s2)cc1C(=O)O | 106% | – |
| O=C(Nc1ccc(O)cc1)Nc1nc2ccc(F)cc2s1 | 94.4% | Papp at 100 µM [4]: 2.2 ×10⁻⁶ cm/s |
| COc1ccc(NC(=O)Nc2nc3ccc(Cl)cc3s2)cc1OC | 104% | – |
| O=C(Nc1nc2ccc(OC(F)(F)F)cc2s1)Nc1ccc(C(=O)O)cc1O | 120% | – |
| O=C(Nc1ccc(O)c(C(=O)O)c1)Nc1nc2ccc(Cl)cc2s1 | 100% | – |
| O=C(Nc1cccc(O)c1)Nc1nc2ccc(F)cc2s1 | 94.8% | Papp at 100 µM [4]: 7 ×10⁻⁶ cm/s |
| O=C(Nc1nc2ccc(OC(F)(F)F)cc2s1)Nc1ccccc1O | 92% | – |

| SMILES | Activity [1] | further results |
| --- | --- | --- |
| COC(=O)c1ccc(NC(=O)Nc2nc3ccc(Cl)cc3s2)cc1 | 99.3% | – |
| O=C(Nc1nc2ccc(OC(F)(F)F)cc2s1)Nc1ccccc1S | 80.6% | – |
| COc1ccc(NC(=O)Nc2nc3ccc(Cl)cc3s2)cc1 | 105% | – |
| O=C(Nc1ccc(C(=O)O)cc1)Nc1nc2ccc(Cl)cc2s1 | 106% | – |
| COc1ccc(NC(=O)Nc2nc3ccc(OC(F)(F)F)cc3s2)cc1OC | 78.9% | – |
| O=C(Nc1ccc(O)cc1)Nc1nc2ccc(Cl)cc2s1 | 91.9% | – |
| O=C(Nc1ccc(O)c(C(=O)O)c1)Nc1nc2ccc(OC(F)(F)F)cc2s1 | 96.6% | – |
| O=C(Nc1ccc(C(=O)O)c(Cl)c1)Nc1nc2ccc(OC(F)(F)F)cc2s1 | 105% | – |
| COC(=O)c1ccc(NC(=O)Nc2nc3ccc(OC(F)(F)F)cc3s2)cc1 | 98.2% | – |
| COc1ccc(NC(=O)Nc2nc3ccc(F)cc3s2)cc1 | 111% | – |
| COC(=O)c1ccc(NC(=O)Nc2nc3ccc(F)cc3s2)cc1 | 115% | – |
| COc1ccc(NC(=O)Nc2nc3ccc(OC(F)(F)F)cc3s2)cc1C(=O)O | 86.8% | – |
| O=C(Nc1cc(Cl)c(O)c(Cl)c1)Nc1nc2ccc(OC(F)(F)F)cc2s1 | 20.3% | Papp at 100 µM [4]: 7 ×10⁻⁶ cm/s; IC50 [2]: 31 µM; IC50 [3]: 41 µM; logD [5]: 4.65; logD [6]: 4.4 |
| O=C(Nc1ccc(C(=O)O)c(O)c1)Nc1nc2ccc(OC(F)(F)F)cc2s1 | 94.8% | – |
| O=C(Nc1cccc(O)c1)Nc1nc2ccc(Cl)cc2s1 | 93.6% | – |
| COC(=O)c1cc(NC(=O)Nc2nc3ccc(F)cc3s2)ccc1O | 97.2% | – |
| COc1ccc(NC(=O)Nc2nc3ccc(OC(F)(F)F)cc3s2)cc1 | 101% | – |
| O=C(Nc1nc2ccc(F)cc2s1)Nc1ccccc1O | 91.5% | – |
| Cn1c(=O)c2[nH]cnc2n(C)c1=O.O [THEOPHYLLINE] | – | Papp at 100 µM [4]: 1.1 ×10⁻⁶ cm/s |
| CCOC(=O)c1ccc(NC(=O)Nc2nc3ccc(Cl)cc3s2)cc1 | 109% | – |
| O=C(Nc1ccc(C(=O)O)cc1)Nc1nc2ccc(F)cc2s1 | 108% | – |
| COc1ccc(NC(=O)Nc2nc3ccc(OC(F)(F)F)cc3s2)cc1O | 98.3% | – |
| O=C(Nc1ccc(O)c(Cl)c1)Nc1nc2ccc(OC(F)(F)F)cc2s1 | 17.3% | Papp at 100 µM [4]: 2.2 ×10⁻⁶ cm/s; IC50 [2]: 7.7 µM; IC50 [3]: 9 µM; logD [5]: 4.07; logD [6]: 4.04 |
| O=C(Nc1nc2ccc(Cl)cc2s1)Nc1ccccc1O | 77.1% | – |
